{"source": "patent US20010020007A1", "about": "“Vitamin preparations for reducing oxygen consumption during physical efforts” (priority 1996, published 2001)", "key": {"[1]": {"assay": "Stimulation of glycogen synthesis and anaerobic glucose breakdown in the muscle by other sugars (description)", "format": "in vivo", "conditions": "even if taken together with vitamin B1 and vitamin C", "text": "D-Maltose can replace the D-glucose in the preparation according to the invention and is even active in considerably lower amounts. […] The conversion of the sucrose or fructose to glucose, however, only takes place in the liver if they have been absorbed from the small intestine."}, "[2]": {"system": "male individuals A and B, trained for endurance cycling", "assay": "Ergometer study a): insulin or sulphonylureas alone or with gelatin and/or Preparation I or II, 15 minutes before test (Example 39)", "format": "in vivo, human", "method": "(§1) Analogously to Example 37, the following studies a) to c) were carried out on two male individuals, trained for endurance cycling and kept on a permanently carbohydrate-rich diet; individual A (weighing 67 kg) having a maximum oxygen uptake capacity of 3.3 l and an oxygen transport volume per heart beat of 29 ml (corresponding to 0.6 kJ), and individual B (weighing 74 kg) having a maximum oxygen uptake capacity of 4.5 l and an oxygen transport volume per heart beat of 36 ml (corresponding to 0.75 kJ) . The following preparations were used, in which the indicated amounts correspond to one dose unit and which were obtained by dissolving or suspending the components in water and gelling the mixture:\n(§2) Prep. I: 10 mg of D-glucose, 1 mg of thiamine and 10 mg of ascorbic acid heated with 5 mg of agar-agar in 1 ml of water;\n(§3) Prep. II: 25 mg of ethanol, 1 mg of thiamine and 50 μg of biotin heated with 5 mg of agar-agar in 1 ml of water;\n(§4) H-Gly-Gly-OH was bought from Novabiochem, Läufelfingen, Switzerland. Insulin was injected subcutaneously, while the other medicaments were ingested alone or together with one of Preparations I-IV.\na) In a first study, insulin or antidiabetic sulphonylurea derivatives were applied, alone or in combination with gelatin and/or Preparation I or II, 15 minutes before the tests. In the tests, individual A was subjected to a workload of 100 W (60 r.p.m.) for 15 minutes (tests A1-A8), and individual B was subjected to a workload of 175 W (60 r.p.m.) for 10 minutes (tests B9-B29)."}, "[3]": {"system": "male individuals A and B, trained for endurance cycling", "assay": "Ergometer study b): sulphonylureas, glucocorticoids, Preparation I and combinations, evening before test (Example 39)", "format": "in vivo, human", "conditions": "individual A, 100 W for 25 min, before sleep, glibenclamide 2.5 mg, glibornuride 25 mg", "method": "as §1, §2, §4\nb) In a second study, antidiabetic sulphonyl urea derivatives, glucocorticoids, Preparation I and combinations thereof were administered before sleep, the evening before the tests. In the tests, individual A was subjected to a workload of 100 W (60 r.p.m.) for 25 minutes (tests A1-A9), and individual B was subjected to a workload of 175 W (60 r.p.m.) for 45 minutes (tests B10-B33)."}, "individual B": {"system": "individual B", "assay": "Ergometer study c): Preparations I-IV with sulphonylureas and/or glucocorticoids, 5 minutes before test (Example 39)", "format": "in vivo, human", "conditions": "125 W for 45 min, ingested 5 min before test, chlorpropamide 20 mg, glibornuride 1 mg, glibenclamide 100 μg, dexamethasone 20 μg, prednisolone 200 μg, Prep. one dose unit", "method": "as §1, §2, §3\nPrep. III: 25 mg of ethanol, 250 μg of folic acid and 5 μg of cyanocobalamin heated with 5 mg of gelatin in 1 ml of water;\nPrep. IV: 10 mg of H-Gly-Gly-OH, 300 μg of folic acid and 5 μg of cyanocobalamin heated 5 mg of gelatin in 1 ml of water.\nas §4\nc) In a further test series, the effect of Preparations I-IV was tested when applied in combination with sulphonylurea derivatives and/or glucocorticoids immediately before the physical exercise. In these tests, individual B was subjected to a workload of 125 W (60 r.p.m.) for 45 minutes; the drugs and Preparations were ingested 5 minutes before the test."}, "[4]": {"conditions": "individual B, 175 W for 10 min, 15 min before test, 5 I.U. insulin s.c., glibenclamide 2.5 mg alone or 100 μg with gelatin, chlorpropamide 10 mg, gelatin 5 mg, Prep. one dose unit"}, "[5]": {"conditions": "individual A, 100 W for 15 min, 2.5 mg glibenclamide 15 min before test"}}, "note": "Several values for one entry are separate records, joined by “and”; a condition that tells them apart may be missing. Equal entries are not always repeated."}
{"compound": "OC[C@H]1O[C@@](CO)(O[C@H]2O[C@H](CO)[C@@H](O)[C@H](O)[C@H]2O)[C@@H](O)[C@@H]1O", "note": "[sucrose]", "values": [{"measurement": "Stimulation of glycogen synthesis and of the anaerobic glucose breakdown in the muscle", "setting": "[1]", "result": "ineffective"}]}
{"compound": "insulin", "values": [{"measurement": "Effect on heat production and oxygen consumption induced by constant physical work loads", "setting": "[2]; applied 15 minutes before the test", "result": "increase"}, {"measurement": "Heat production", "setting": "[2]; [4]", "result": "675 kJ and 696 kJ (2×)"}, {"measurement": "Mean heart rate", "setting": "[2]; [4]", "result": "142.0 per min. and 144.8 per min. (2×)"}, {"measurement": "Oxygen consumption", "setting": "[2]; [4]", "result": "32 liter and 33 liter (2×)"}]}
{"compound": "Cc1ccc(S(=O)(=O)NC(=O)N[C@H]2[C@H]3CC[C@@](C)([C@H]2O)C3(C)C)cc1", "note": "[glibornuride]", "values": [{"measurement": "Heat production", "setting": "[3]", "result": 600, "unit": "kJ"}, {"measurement": "Mean heart rate", "setting": "[3]", "result": 100.0, "unit": "per min."}, {"measurement": "Oxygen consumption", "setting": "[3]", "result": 29, "unit": "L"}, {"measurement": "Heat production", "setting": "individual B", "result": 2706, "unit": "kJ"}, {"measurement": "Mean heart rate", "setting": "individual B", "result": 132.2, "unit": "per min."}, {"measurement": "Oxygen consumption", "setting": "individual B", "result": 130, "unit": "L"}]}
{"compound": "COc1ccc(Cl)cc1C(=O)NCCc1ccc(S(=O)(=O)NC(=O)NC2CCCCC2)cc1", "note": "[glibenclamide]", "values": [{"measurement": "Heat production", "setting": "[2]; [5]", "result": "687 kJ and 700 kJ and 679 kJ"}, {"measurement": "Mean heart rate", "setting": "[2]; [5]", "result": "136.4 per min. and 137.8 per min. and 135.4 per min."}, {"measurement": "Oxygen consumption", "setting": "[2]; [5]", "result": "33 liter (2×) and 34 liter"}, {"measurement": "Heat production", "setting": "[2]; [4]", "result": "724 kJ and 698 kJ"}, {"measurement": "Mean heart rate", "setting": "[2]; [4]", "result": "147.5 per min. and 145.1 per min."}, {"measurement": "Oxygen consumption", "setting": "[2]; [4]", "result": 34, "unit": "L"}, {"measurement": "Heat production", "setting": "[3]", "result": "622 kJ and 613 kJ and 531 kJ"}, {"measurement": "Mean heart rate", "setting": "[3]", "result": "101.5 per min. and 100.9 per min. and 95.4 per min."}, {"measurement": "Oxygen consumption", "setting": "[3]", "result": "30 liter (2×) and 26 liter"}, {"measurement": "Heat production", "setting": "individual B", "result": 2727, "unit": "kJ"}, {"measurement": "Mean heart rate", "setting": "individual B", "result": 132.6, "unit": "per min."}, {"measurement": "Oxygen consumption", "setting": "individual B", "result": 131, "unit": "L"}]}
{"compound": "CCCNC(=O)NS(=O)(=O)c1ccc(Cl)cc1", "note": "[chlorpropamide]", "values": [{"measurement": "Heat production", "setting": "individual B", "result": 2717, "unit": "kJ"}, {"measurement": "Mean heart rate", "setting": "individual B", "result": 132.5, "unit": "per min."}, {"measurement": "Oxygen consumption", "setting": "individual B", "result": 130, "unit": "L"}]}
{"compound": "O=C(CO)[C@@H](O)[C@H](O)[C@H](O)CO", "note": "[fructose]", "values": [{"measurement": "Stimulation of glycogen synthesis and of the anaerobic glucose breakdown in the muscle", "setting": "[1]", "result": "ineffective"}]}
